The test system of this assay is B6C3F1 mice, B16 melanoma ip, median survival T/C. The assay is described as follows: NCI In Vivo Anticancer Drug Screen. Data for tumor model B16 Melanoma (intraperitoneal) in B6C3F1 mice. The conditions noted are these: endpoint: median survival time, schedule: Q01DX009 (ip), higher = longer survival. The method, boiled down:
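Values are T/C ratios: the measurement in treated animals divided by that in vehicle-treated controls, using survival or tumor size in mice carrying transplantable tumors.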

Setting [1] is: dose: 25.0 mg/kg/injection, vehicle: saline with Tween-80.
Setting [2] is: dose: 50.0 mg/kg/injection, vehicle: saline with Tween-80.
The mark [3] stands for this setting: dose: 100.0 mg/kg/injection, vehicle: saline with Tween-80.
Setting [4] is: dose: 50.0 mg/kg/injection, vehicle: Klucel (hydroxypropylcellulose) (HPC).
Setting [5] is: dose: 100.0 mg/kg/injection, vehicle: Klucel (hydroxypropylcellulose) (HPC).
[6] abbreviates: dose: 200.0 mg/kg/injection, vehicle: Klucel (hydroxypropylcellulose) (HPC).
[7] abbreviates: dose: 6.25 mg/kg/injection, vehicle: saline with Tween-80.
Setting [8] is: dose: 12.5 mg/kg/injection, vehicle: saline with Tween-80.
Where [9] appears, read: dose: 3.12 mg/kg/injection, vehicle: saline with Tween-80.
The mark [10] stands for this setting: dose: 25.0 mg/kg/injection, vehicle: Klucel (hydroxypropylcellulose) (HPC).
[11] abbreviates: dose: 12.5 mg/kg/injection, vehicle: saline.
[12] abbreviates: dose: 25.0 mg/kg/injection, vehicle: saline.
Setting [13] is: dose: 50.0 mg/kg/injection, vehicle: saline.

“And” between values parts separate entries of the source, which are not always exact repeats. Identical values can stand only once. Toxic doses and inconclusive results are not listed.

Regarding `O=C(NC(Cc1ccccc1)C(=O)O)c1ccccc1` (stereo unspecified), the T/C by setting is: under setting [1], 112 % of control; under setting [2], 112 % of control and 90 % of control; under setting [3], 96 % of control and 100 % of control.
With `Cc1ccc(S(=O)(=O)OCOS(=O)(=O)c2ccc(C)cc2)cc1`, the T/C under setting [4] was 120 % of control and 122 % of control; the T/C under setting [5] is 117 % of control; the T/C under setting [6] is 154 % of control; the T/C (dose: 400.0 mg/kg/injection, vehicle: Klucel (hydroxypropylcellulose) (HPC)) was 191 % of control.
Take `Nc1ncnc2c1ncn2C1OC(COP(=O)(O)OC2C(O)C(COP(=O)(O)OC3C(O)C(COP(=O)(O)OP(=O)(O)OP(=O)(O)O)OC3n3cnc4c(N)ncnc43)OC2n2cnc3c(N)ncnc32)C(O)C1O` (stereo unspecified): the T/C (dose: 0.12 mg/kg/injection, vehicle: distilled water + Tween-80 + alcohol) was 88 % of control; the T/C (dose: 0.25 mg/kg/injection, vehicle: distilled water + Tween-80 + alcohol) is 91 % of control; the T/C (dose: 0.5 mg/kg/injection, vehicle: distilled water + Tween-80 + alcohol) was 94 % of control; the T/C (dose: 1.0 mg/kg/injection, vehicle: distilled water + Tween-80 + alcohol) is 98 % of control.
Regarding `c1ccc2c(c1)-c1ccccc1C1NC21` (stereo unspecified), the T/C runs as follows: under setting [7], 103 % of control; under setting [8], 112 % of control.
In the case of `CCCCCCCCSC1=C(Cl)C(=O)C(OC)=C(OC)C1=O`, the T/C by setting is: (dose: 1.56 mg/kg/injection, vehicle: saline with Tween-80) 100 % of control; under setting [9], 93 % of control; under setting [7], 89 % of control.
With `CC(=O)OC1=C(Cl)CCc2ccccc21`, the T/C is, setting by setting: (dose: 37.5 mg/kg/injection, vehicle: saline with Tween-80) 115 % of control; (dose: 75.0 mg/kg/injection, vehicle: saline with Tween-80) 96 % of control; (dose: 150.0 mg/kg/injection, vehicle: saline with Tween-80) 98 % of control.
Regarding `C[Si](C)(C)O/C=C1/CCOC1=O`, the T/C is, setting by setting: (dose: 12.5 mg/kg/injection, vehicle: Klucel (hydroxypropylcellulose) (HPC)) 104 % of control; under setting [10], 93 % of control; under setting [4], 95 % of control; under setting [5], 95 % of control; under setting [6], 106 % of control.
For the compound `O=CC(CO)CC(C=O)n1cnc2c(=O)[nH]cnc21` (stereo unspecified), the T/C is 106 % of control (dose: 37.5 mg/kg/injection, vehicle: saline); 108 % of control (dose: 75.0 mg/kg/injection, vehicle: saline); 100 % of control (dose: 150.0 mg/kg/injection, vehicle: saline); 111 % of control (dose: 300.0 mg/kg/injection, vehicle: saline).
With `CCC12C[N+]3([O-])CCc4c([nH]c5ccccc45)C(C(=O)OC)(c4cc5c(cc4OC)N(C)C4C(O)(C(=O)OC)C(OC(C)=O)C6(CC)C=CCN7CCC54C76)CC(C3)C1O2` (stereo unspecified), the T/C reads like this: (dose: 0.62 mg/kg/injection, vehicle: water) 112 % of control; (dose: 1.25 mg/kg/injection, vehicle: water) 104 % of control and 107 % of control; (dose: 2.5 mg/kg/injection, vehicle: saline) 185 % of control; (dose: 5.0 mg/kg/injection, vehicle: saline) 246 % of control; (dose: 5.0 mg/kg/injection, vehicle: water) 108 % of control and 261 % of control; (dose: 10.0 mg/kg/injection, vehicle: saline) 373 % of control. In addition, under “dose: 10.0 mg/kg/injection, vehicle: water”, the T/C is 121 % of control and 309 % of control.
On to `CN(C)N=Nc1cccc2c1N(C)c1ccc(Cl)cc1S2`, for which the T/C by setting is: (dose: 6.25 mg/kg/injection, vehicle: other) 109 % of control; (dose: 12.5 mg/kg/injection, vehicle: other) 108 % of control; (dose: 25.0 mg/kg/injection, vehicle: other) 103 % of control; (dose: 50.0 mg/kg/injection, vehicle: other) 104 % of control; (dose: 100.0 mg/kg/injection, vehicle: other) 89 % of control.
For `O=C(Nc1cccc2c(OC(=O)C(Cl)Cl)c(N=Nc3ccc(S(=O)(=O)Nc4nccs4)cc3)cc(N=Nc3ccc(S(=O)(=O)Nc4nccs4)cc3)c12)C(Cl)Cl` (tested in a mixture with another compound), the T/C is, setting by setting: under setting [9], 104 % of control; (dose: 3.13 mg/kg/injection, vehicle: saline with Tween-80) 94 % of control; under setting [7], 115 % of control and 119 % of control and 87 % of control; under setting [8], 114 % of control and 100 % of control and 104 % of control; under setting [1], 109 % of control; under setting [2], 108 % of control. Further, the T/C under setting [3] was 95 % of control.
Consider `O=C(Nc1ccc(C2=NCCCN2)cc1)c1ccc(C(=O)Nc2ccc(C3=NCCCN3)cc2)nc1`, for which the T/C runs as follows: (dose: 0.31 mg/kg/injection, vehicle: saline with Tween-80) 100 % of control; (dose: 0.62 mg/kg/injection, vehicle: saline with Tween-80) 106 % of control; (dose: 1.25 mg/kg/injection, vehicle: saline with Tween-80) 105 % of control; (dose: 2.5 mg/kg/injection, vehicle: saline with Tween-80) 100 % of control; (dose: 5.0 mg/kg/injection, vehicle: saline with Tween-80) 100 % of control.
For `CCCC(C(=O)OCCN1CCCC12CCCCC2)C1CCCC1` (stereo unspecified), the T/C was 105 % of control under setting [11], 91 % of control under setting [12] and 91 % of control under setting [13].
On to `c1cn[nH]c1`, for which the T/C reads like this: under setting [11], 94 % of control; under setting [12], 118 % of control; under setting [13], 118 % of control; (dose: 100.0 mg/kg/injection, vehicle: saline) 106 % of control.
Turning to `CCCCCCCCCCCCCCCCC(C(=O)O)C(O)(CC(=O)O)C(=O)O` (stereo unspecified), the T/C reads like this: (dose: 8.75 mg/kg/injection, vehicle: Klucel (hydroxypropylcellulose) (HPC)) 95 % of control; (dose: 17.5 mg/kg/injection, vehicle: Klucel (hydroxypropylcellulose) (HPC)) 91 % of control; (dose: 35.0 mg/kg/injection, vehicle: Klucel (hydroxypropylcellulose) (HPC)) 100 % of control; (dose: 70.0 mg/kg/injection, vehicle: Klucel (hydroxypropylcellulose) (HPC)) 93 % of control.
In the case of `CSc1nc(N)cc(NC(=O)CCl)n1`, the T/C was 102 % of control under setting [10], 100 % of control under setting [4] and 92 % of control under setting [5].

Source of the values: PubChem BioAssay AID200 (DTP/NCI, 2004).
